A word on the pEC50: it is −log10 of the EC50, conventionally taken in molar units.

The values below come from patent publication US7935708B2, “Dihydropyrazolopyrimidinone derivatives” (MSD K.K., priority 2006, dated 2011).

In assay [1] the test system is Human colon cancer cells (WiDr). Briefly: Checkpoint escape effect in gemcitabine-treated WiDr cells (phosphorylated histone H3-positive cells). The following applies: gemcitabine 100 nM 24 hours, then test compound with nocodazole 8 hours. Type of assay: cell-based. An excerpt: Pharmaceutical Text 3 (Method of Determining Drug Potency in Cells (Checkpoint-Removing Effect))
Fetal bovine serum (FBS) was obtained from Morgate; DMEM was from Invitrogen; gemcitabine was from Nippon Eli Lilly; nocodazole and 4′,6-diamidino-2-phenylindole were from Sigma; rabbit anti-phosphorylated histone H3 antibody was from Upstate; and fluorescence-labeled (Alexa Fluor 488) anti-rabbit IgG antibody was from Molecular Probe.
Human colon cancer cells (WiDr) were obtained from American Type Culture Collection (ATCC).
(§1) c) Method of Effect Determination:
The cells were suspended in DMEM containing 10% FBS, and the cell suspension was applied to a poly-D-lysine-coated 96-well plastic plate (bought from Becton Dickinson) in an amount of 2000 cells/100 μL/well, in which the cells were incubated overnight in 5% CO2-95% air at 37° C. Gemcitabine was dissolved in phosphate-buffered saline (PBS), and diluted with DMEM containing 10% FBS, and then this was applied to the plate on which the cells had been previously sowed, in an amount of 50 μL/well in such a manner that the final concentration of gemcitabine could be 100 nM. Then, the cells were incubated for 24 hours at 37° C. in 5% CO2-95% air. The test compound was stepwise diluted with dimethylsulfoxide, then diluted with 1200 nM nocodazole-containing DMEM containing 10% FBS, and applied to the plate on which the gemcitabine-treated cells had been sowed, in an amount of 50 μL/well. […] Next, this was washed with PBS, and a solution containing 4′,6-diamidino-2-phenylindole that had been diluted with 1% BSA/PBS to have a concentration 10 μg/mL and a fluorescence-labeled (Alexa Fluor 488) anti-rabbit IgG antibody that had been diluted 250-fold was added to it in an amount 50 μL/well, and reacted in a dark place at room temperature for 60 minutes. Finally, this was washed with PBS, and its fluorescence intensity was determined to calculate the ratio of the phosphorylated histone H3-positive cells (cells that had been in a cell division cycle through removal of checkpoint). […]

Assay [2] concerns Cdc2 (Cdk1) tyrosine 15 phosphorylation in NCI-H1299 cells. Briefly: Cdc2 (Cdk1) tyrosine 15-phosphorylation-inhibitory effect in camptothecin-treated NCI-H1299 cells (ELISA). The following applies: Homo sapiens, camptothecin 200 nM 16 hours, then test compound with nocodazole 8 hours, read-out: Cdc2-Y15 Phosphorylation-Inhibitory Effect (H1299, + camptothecin) (EC50). Type of assay: cell-based.
Excerpt: Pharmaceutical Text 2 (Method of Determining Drug Potency in Cells (Cdc2 (Cdk1) Tyrosine 15-Phosphorylation-Inhibitory Effect))
Fetal bovine serum (FBS) was obtained from Morgate; media RPMI1640 and DMEM were from Invitrogen; camptothecin was from Sigma; gemcitabine was from Nippon Eli Lilly; nocodazole and protease inhibitor cocktail were from Sigma; rabbit anti-Cdc2 antibody and mouse anti-Cdc2 antibody were from Santa Cruz Biotechnology; rabbit anti-tyrosine 15-phosphorylated Cdc2 antibody and horseradish peroxidase-labeled anti-mouse IgG antibody were from Cell Signaling Technology; sure blue reserve TMB peroxidase substrate was from Kirkegaard and Perry Laboratories.
Human non-small cell lung cancer cells (NCI-H1299) and human colon cancer cells (WiDr) were obtained from American Type Culture Collection (ATCC).
as §1
In the method of using NCI-H1299 cells, the cells were suspended in RPMI1640 containing 10% FBS, and the cell suspension was applied to a 96-well Nunclondelta-processed plastic plate (bought from Nunc), in an amount of 2000 cells/100 μL/well, in which the cells were incubated overnight in 5% CO2-95% air at 37° C. Camptothecin was dissolved in dimethylsulfoxide (DMSO), and diluted with RPMI1640 containing 10% FBS, and then this was applied to the plate on which the cells had been previously sowed, in an amount of 50 μL/well in such a manner that the final concentration of camptothecin could be 200 nM. Then, the cells were incubated for 16 hours at 37° C. in 5% CO2-95% air. The test compound was stepwise diluted with DMSO, then diluted with 4000 nM nocodazole-containing RPMI1640 containing 10% FBS, and applied to the plate on which the camptothecin-treated cells had been sowed, in an amount of 50 μL/well. The cells were incubated for 8 hours at 37° C. in 5% CO2-95% air, then the medium was removed, and a cytolytic buffer was added to the plate in an amount of 100 μL/well, shaken at 4° C. for 2 hours, then frozen at −80° C., and melted to give a cell solution. Cdc2 and tyrosine 15-phosphorylated Cdc2 in the cell solution were determined through enzyme-linked immunosorbent assay (ELISA), and the ratio of tyrosine 15-phosphorylated Cdc2 to Cdc2 was calculated to obtain the 50% phosphorylation-inhibitory concentration of the test compound to the cells (EC50, nM). The cytolytic buffer used herein is an aqueous solution containing 20 mM Hepes (pH 7.5), 150 mM sodium chloride, 1 mM disodium ethylenediaminetetraacetate, 0.1% polyoxyethylene (10) octylphenyl ether, 1% protease inhibitor cocktail, 1 mM dithiothreitol, 2 mM sodium orthovanadate, 10 mM sodium fluoride and 10 mM glycerol diphosphate. Cdc2 was determined through ELISA as follows: A rabbit anti-Cdc2 antibody solution, which had been diluted 200-fold with 50 mM carbonate-bicarbonate buffer (pH 9.6), was applied to a 96-well maxisorpimmuno plate (bought from Nunc), in an amount of 50 μL/well, and statically kept overnight at 4° C. so as to fix the antibody on the plate. Next, this was washed three times with phosphate-buffered saline (PBS), and 5% bovine serum albumin-containing PBS (5% BSA/PBS) was added thereto in an amount of 300 μL/well, and statically kept at room temperature for 2 hours, and then again washed three times with PBS. A mouse anti-Cdc2 antibody solution that had been diluted 100-fold with 0.05% polyoxyethylene sorbitan monolaurate and 1% BSA-containing Tris-HCl-buffered saline (1% BSA/TBS-T) was added to it in an amount of 50 μL/well, and the cell solution was added thereto in an amount of 5 μL/well and statically kept overnight at 4° C. Next, this was washed three times with 0.05% polyoxyethylene sorbitan monolaurate and 0.1% BSA-containing Tris-HCl-buffered saline (0.1% BSA/TBS-T), and then a horseradish peroxidase-labeled anti-mouse IgG antibody solution that had been diluted 2000-fold with 1% BSA/TBS-T was added thereto in an amount of 70 μL/well, and statically kept at room temperature for 3 hours. […]
On the technique in general: ELISA stands for enzyme-linked immunosorbent assay.

pEC50: −log10 of the molar value.

Turning to `C=CCn1c(=O)c2cnc(Nc3ccc(N4CCN(C)CC4)c(CO)c3)nc2n1-c1ccsc1` [Example 3, 2-allyl-6-{[3-(hydroxymethyl)-4-(4-methylpiperazin-1-yl)phenyl]amino}-1-(3-thienyl)-1,2-dihydro-3H-pyrazolo[3,4-d]pyrimidin-3-one], the results for the pEC50 in assay [1] and in assay [2] were 6.57 and 7.21, respectively.

Consider `C=CCn1c(=O)c2cnc(Nc3ccc(N4CCN(C)CC4)cc3)nc2n1-c1cccc(N2CCN(C)C2=O)n1` [Example 148, 2-allyl-1-[6-(3-methyl-2-oxoimidazolidin-1-yl)pyridin-2-yl]-6-{[4-(4-methylpiperazin-1-yl)phenyl]amino}-1,2-dihydro-3H-pyrazolo[3,4-d]pyrimidin-3-one], for which the pEC50 in assay [1] was 7.00; in assay [2], 7.10.
